Here are results for 13 molecules from PubChem BioAssay (NCI).

Test systems include A549 NSCLC; HT29 colon; MALME-3M melanoma; OVCAR-5 ovarian; SK-MEL-2 melanoma; SK-MEL-28 melanoma; SK-OV-3 ovarian; SR leukemia; T-47D breast; SF-539 CNS.
Holding throughout (assay): inhibition of tumour cell growth, NCI panel, 48 h

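In this assay, cells in 96-well plates receive the compound at five concentrations for 48 hours. Endpoints are linearly interpolated between the surrounding concentrations. GI50 is the concentration that inhibits growth by half. Definition used: TGI = concentration required for complete inhibition of growth.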

Regarding `O=C(Nc1ccccc1)N(CCCCN(Cc1ccccc1)C(=O)Nc1ccccc1)Cc1ccccc1`, the TGI in the assay with A549 NSCLC, with HT29 colon, with MALME-3M melanoma, with OVCAR-5 ovarian, in the assay with SK-MEL-2 melanoma and in the assay with SK-MEL-28 melanoma was more than 100 µM each time. Besides, the TGI in the assay with SK-OV-3 ovarian, with SR leukemia and in the assay on T-47D breast was more than 100 µM in each case.

Take `O=C(Cn1c(C(=O)/C=C/c2cccs2)nc2ccccc21)c1ccc(Cl)cc1`: the TGI in the assay with A549 NSCLC is more than 100 µM; in the assay with HT29 colon it was 56.9 µM; with MALME-3M melanoma it was 54.7 µM; in the assay with OVCAR-5 ovarian, more than 100 µM; in the assay on SF-539 CNS, more than 100 µM; in the assay with SK-MEL-2 melanoma, 20.8 µM. In addition, the TGI in the assay with SK-MEL-28 melanoma was more than 100 µM; with SK-OV-3 ovarian, more than 100 µM; in the assay on SR leukemia it was 22 µM; in the assay on T-47D breast it was more than 100 µM.

As to `C#CCSC(C=C=C)P(=O)(OC(C)C)OC(C)C` (stereo not given), the TGI in the assay with A549 NSCLC is more than 100 µM; in the assay with HT29 colon, 94.5 µM; with MALME-3M melanoma, more than 100 µM; with OVCAR-5 ovarian, more than 100 µM; with SK-MEL-2 melanoma, more than 100 µM; in the assay on SK-MEL-28 melanoma it was more than 100 µM. Moreover, the TGI with SK-OV-3 ovarian, with SR leukemia and with T-47D breast was more than 100 µM in each case.

As to `OC(CCNCc1ccccc1)c1ccc2ccccc2c1` (stereo not given), the TGI turned out to be 36.3 µM in the assay with A549 NSCLC; 61.7 µM in the assay with HT29 colon; 38.7 µM with MALME-3M melanoma; 75.4 µM in the assay on OVCAR-5 ovarian; 31.9 µM in the assay on SF-539 CNS; 38.9 µM in the assay with SK-MEL-2 melanoma. For the same molecule, the values for the TGI with SK-MEL-28 melanoma, in the assay with SR leukemia and with T-47D breast were 34 µM, 98.3 µM and 49.9 µM, respectively.

With `COc1ccc(C(SC2C(O)C(CO)OC2n2ccc(N)nc2=O)(c2ccccc2)c2ccc(OC)cc2)cc1` (stereo not given), the TGI in the assay on A549 NSCLC amounted to 54.2 µM; in the assay with HT29 colon, 36.2 µM; with MALME-3M melanoma, 28.3 µM; in the assay on OVCAR-5 ovarian, 50.8 µM; with SF-539 CNS it was 36.3 µM; with SK-MEL-2 melanoma, 33 µM. The TGI came to 75.6 µM in the assay on SK-MEL-28 melanoma, 56.1 µM in the assay on SK-OV-3 ovarian, 58 µM with SR leukemia and 47.4 µM in the assay on T-47D breast.

For `CCOC(=O)c1c(N2CCCC2)ncn(Cc2ccccc2)c1=S`, the TGI in the assay on A549 NSCLC, in the assay with HT29 colon, in the assay on MALME-3M melanoma, with OVCAR-5 ovarian, in the assay with SF-539 CNS and in the assay with SK-MEL-2 melanoma was more than 100 µM in each case. Besides, the TGI with SK-MEL-28 melanoma, with SK-OV-3 ovarian, with SR leukemia and in the assay on T-47D breast was more than 100 µM in each case.

In the case of `COc1ccc(NC(C)=O)cc1N1C(=O)/C(=C\c2cc(OC)c(OC)c(OC)c2)SC1c1ccccc1` (stereo not given), the TGI in the assay with A549 NSCLC, with HT29 colon, in the assay on MALME-3M melanoma, in the assay on OVCAR-5 ovarian, in the assay on SF-539 CNS and in the assay with SK-MEL-2 melanoma was more than 100 µM each time. For the same molecule, the TGI with SK-MEL-28 melanoma, with SK-OV-3 ovarian, in the assay on SR leukemia and in the assay with T-47D breast was more than 100 µM each time.

In the case of `C[C@@H]1CC[C@H]2C(C(O)CCCCC(O)C3=C(C(F)(F)F)O[C@@H]4O[C@@]5(C)CC[C@H]6[C@H](C)CC[C@@H]3[C@@]46OO5)=C(C(F)(F)F)O[C@@H]3O[C@@]4(C)CC[C@@H]1[C@]32OO4` (stereo not given in full), the GI50 with A549 NSCLC is 8.87 µM; with HT29 colon it was 13.6 µM; in the assay with MALME-3M melanoma, 44.7 µM; in the assay with SF-539 CNS it was 90.7 µM; in the assay on SK-MEL-2 melanoma it was more than 100 µM; with SK-MEL-28 melanoma it was 86.7 µM. For the same molecule, the GI50 with SK-OV-3 ovarian is more than 100 µM; with SR leukemia it was 1.91 µM; in the assay on T-47D breast, 2.52 µM. Moreover, the TGI in the assay on A549 NSCLC, in the assay with HT29 colon, with MALME-3M melanoma, with SF-539 CNS, in the assay with SK-MEL-2 melanoma and in the assay with SK-MEL-28 melanoma was more than 100 µM each time. Also, the TGI was more than 100 µM in the assay with SK-OV-3 ovarian, 6.04 µM in the assay on SR leukemia and 9.02 µM in the assay on T-47D breast.

Turning to `CCOC(=O)c1cc2c3c(c(C(C)=O)c(O)c2[nH]1)N(CC(C)CC)CC3` (stereo not given), the TGI in the assay on A549 NSCLC is more than 100 µM; with HT29 colon, more than 100 µM; with MALME-3M melanoma it was 81.4 µM; in the assay on SF-539 CNS, more than 100 µM; with SK-MEL-2 melanoma, more than 100 µM; with SK-MEL-28 melanoma it was more than 100 µM. Moreover, the TGI with SK-OV-3 ovarian was more than 100 µM; in the assay with SR leukemia, more than 100 µM; in the assay with T-47D breast, 92.6 µM.

For `COC1OC2COC1(OC)C1OC(C)(C)OC21` (stereo not given), the TGI with A549 NSCLC, in the assay on HT29 colon, in the assay with MALME-3M melanoma, in the assay on OVCAR-5 ovarian, in the assay on SK-MEL-2 melanoma and with SK-MEL-28 melanoma was more than 100 µM throughout. The TGI with SK-OV-3 ovarian, with SR leukemia and in the assay on T-47D breast was more than 100 µM in each case.

On to `CCCCCC(C)SC1(C(=O)OC)CC(OC(C)=O)C(NC(C)=O)C([C@H](OC(C)=O)[C@@H](COC(C)=O)OC(C)=O)O1` (stereo not given in full), for which the TGI with A549 NSCLC was more than 100 µM; in the assay on HT29 colon it was more than 100 µM; in the assay on MALME-3M melanoma, more than 100 µM; with OVCAR-5 ovarian, more than 100 µM; in the assay with SF-539 CNS it was 70.1 µM; with SK-MEL-2 melanoma it was 64.4 µM. The TGI with SK-MEL-28 melanoma, in the assay with SR leukemia and with T-47D breast was more than 100 µM in each case.

Take `Nc1ccccc1CC(O)C(=O)O` (stereo not given): the TGI with A549 NSCLC, in the assay on HT29 colon, in the assay with MALME-3M melanoma, in the assay with OVCAR-5 ovarian, in the assay on SF-539 CNS and in the assay with SK-MEL-28 melanoma was more than 100 µM throughout. For the same molecule, the TGI with SK-OV-3 ovarian, with SR leukemia and with T-47D breast was more than 100 µM throughout.

For the molecule `O=c1c2cc(I)ccc2nc(-c2cccs2)n1-c1ccc(O)cc1`, the TGI with A549 NSCLC amounted to 27.4 µM; with HT29 colon it was 27.1 µM; in the assay with MALME-3M melanoma it was 20.6 µM; with OVCAR-5 ovarian it was 30.2 µM; in the assay with SF-539 CNS, 14.5 µM; in the assay with SK-MEL-2 melanoma, 29.9 µM. Also, the TGI was 34 µM in the assay on SK-MEL-28 melanoma, more than 100 µM with SR leukemia and 10.7 µM in the assay on T-47D breast.
